The experiment concerns YFP-expressing cortical neurons. The experiment is described as follows: GD2-Cy5 uptake in ex vivo cortical brain sections: neuronal activity and glucose transporter blockade. As to conditions: 30 minutes pre-treatment in Mg2+ free ACSF: cytochalasin B 5 μM, glutor 10 μM, phlorizin 10 μM, GD2-Cy5 10 μg/ml. The format is cell-based, mouse. The procedure: FIG. 9A is scheme of the experiment in which 300 μm cortical brain sections were pre-treated for 30 minutes with control ACSF (Mg2+ free, increases neuronal firing) or ACSF containing Mg2+/NMDG (suppressed neuronal activity) or control ACSF with either cytochalasin B (5 μM) or glutor ([…]). After pre-treatment, brain sections were incubated with GD2-Cy5 (10 μg/ml) for 30 minutes followed by 10% formalin fixation and confocal imaging.
300 μm cortical brain sections were pre-treated for 30 minutes with Mg2+ free artificial cerebrospinal fluid (ACSF) (increases neuronal firing) or ACSF containing Mg2+/NMDG (suppressed neuronal activity) or Mg2+ free ACSF with cytochalasin B (5 μM) or glutor (10 μM) or phlorizin (10 μM). After pre-treatment, brain sections were incubated with GD2-Cy5 (10 μg/ml) for 30 minutes followed by formalin fixation and confocal imaging. Mean fluorescence intensities for GD-Cy5 were evaluated in YFP-expressing cortical neurons. Confocal images of fixed sections showing DAPI (nucleus), YFP (neurons) and GD2-Cy5 with different treatments were taken and analyzed.
CP rabbit kits or Thy1-YFP mice were deeply anesthetized with isoflurane and decapitated. Brains were removed and transferred to oxygenated (95% O2/5% CO2), ice-cold N-Methyl-D-glucamin (NMDG)-based buffer (Buffer1, in mM: 92 NMDG, 2.5 KCl, 10 MgSO4, 0.5 CaCl2, 1.2 NaH2PO4, 30 NaHCO3, 25 glucose, 20 HEPES, 5 sodium ascorbate, 3 sodium pyruvate, 2 thiourea; pH 7.4). Coronal brain slices ([…]) were then obtained using a vibratome (VT1200, Leica). Slices were first incubated in the NMDG-based solution at 34° C. for 10 minutes, then transferred and maintained in the same solution for an hour at room temperature before starting subsequent experiment. Dendrimer-Cy5 was added in 5 ml of Buffer2 (in mM: 125 NaCl, 2.5 KCl, 1 MgCl2, 2 CaCl2, 1.25 NaH2PO4, 26 NaHCO3, 20 glucose; pH 7.4) containing brain slices and incubated for 30 min while oxygenation at room temperature. […]

“Also recorded” adds a separate entry of the source.

On to `C[C@@]1(C(=O)NCc2cccnc2)Cn2nc(-c3ccccc3)cc2C(=O)N1Cc1ccc(N2CCOCC2)cc1` [glutor], for which the “Effect of transporter blocker pre-treatment on GD2 uptake by neurons” value is listed as “diminished GD2 uptake; also recorded: significantly decreased”.
The value for `C=C1[C@@H](C)[C@H]2[C@H](Cc3ccccc3)NC(=O)[C@]23OC(=O)/C=C/[C@H](O)CCC[C@@H](C)C/C=C/[C@H]3[C@@H]1O` [cytochalasin B] was “diminished GD2 uptake; also recorded: significantly decreased”; that for `O=C(CCc1ccc(O)cc1)c1c(O)cc(O)cc1O[C@@H]1O[C@H](CO)[C@@H](O)[C@H](O)[C@H]1O` [Phlorizin] was “diminished GD2 uptake”.
